Assay results reported in US12582638B2, “Pharmaceutical composition for treating cancer, containing mTOR-signaling inhibitor as active ingredient” (KOREA ADVANCED INSTITUTE OF SCIENCE AND TECHNOLOGY, priority 2020, dated 2026).

Tests used:
Assay in all cases: Cell viability, CellTiterGlo, 72 hours
Type in all cases: cell-based
[1] = system: A375; details: Homo sapiens, A-375, A375 cells, Skin
Procedure: (§1) In addition to the colorectal cells, 120 cancer cell lines treated with various concentrations of lomitapide were assayed for viability. To analyze cell viability, the cells were incubated with lomitapide at 37° C. for 72 hours in a 5% or 10% CO2 atmosphere and then equilibrated at room temperature for 1 hour, followed by addition of CellTiterGlo reagent (Promega). One hour later, luminescence was measured to calculate cell viability (%). The 120 cell lines were purchased from ATCC (American Type Culture Collection, Virginia, USA).

[2] = system: AsPC-1; details: Homo sapiens, ASPC1, AsPC-1 cells, Pancreas
Procedure: as §1

[3] = system: BT-20; details: Homo sapiens, BT-20 cells, Breast
Procedure: as §1

[4] = system: BxPC-3; details: Homo sapiens, BxPC-3 cells, Pancreas
Procedure: as §1

[5] = system: COR-L279; details: Homo sapiens, COR-L279 cells, Lung
Procedure: as §1

[6] = system: Caki-2; details: Homo sapiens, Caki-2 cells, Kidney
Procedure: as §1

[7] = system: EFM-19; details: Homo sapiens, EFM-19 cells, Breast
Procedure: as §1

[8] = system: H460; details: Homo sapiens, NCI-H460, H460 cells, Lung
Procedure: as §1

[9] = system: H4; details: H4 cells, Brain
Procedure: as §1

[10] = system: HCT-15; details: Homo sapiens, HCT-15 cells, Colon
Procedure: as §1

[11] = system: HCT116; details: Homo sapiens, HCT-116, HCT116 cells, Colon
Procedure: as §1

[12] = system: HT-1080; details: Homo sapiens, HT-1080 cells, Fibrosarcoma
Procedure: as §1

[13] = system: Hep3B2.1-7; details: Hep3B2.1-7 cells, Liver
Procedure: as §1

[14] = system: JVM-3; details: Homo sapiens, JVM-3 cells, Blood
Procedure: as §1

[15] = system: LN229; details: Homo sapiens, LN-229, LN229 cells, Brain
Procedure: as §1

[16] = system: LnCap; details: Homo sapiens, LnCap cells, Prostate
Procedure: as §1

[17] = system: M07e; details: M-07e, M07e cells, Blood
Procedure: as §1

[18] = system: MCAS; details: MCAS cells, Ovary
Procedure: as §1

[19] = system: MCF-7; details: Homo sapiens, MCF7, MCF-7 cells, Breast
Procedure: as §1

[20] = system: MOLT-4; details: Homo sapiens, MOLT-4 cells, Blood
Procedure: as §1

[21] = system: NCI-H1437; details: Homo sapiens, NCI-H1437 cells, Lung
Procedure: as §1

[22] = system: NCI-H1563; details: Homo sapiens, NCI-H1563 cells, Lung
Procedure: as §1

[23] = system: NCI-H1703; details: Homo sapiens, NCI-H1703 cells, Lung
Procedure: as §1

[24] = system: NCI-H1838; details: Homo sapiens, NCI-H1838 cells, Lung
Procedure: as §1

[25] = system: NCI-H2009; details: Homo sapiens, NCI-H2009 cells, Lung
Procedure: as §1

[26] = system: NCI-H2110; details: NCI-H2110 cells, Lung
Procedure: as §1

[27] = system: NCI-H292; details: Homo sapiens, NCI-H292 cells, Lung
Procedure: as §1

[28] = system: NCI-N87; details: Homo sapiens, NCI-N87 cells, Stomach
Procedure: as §1

[29] = system: OCI-AML3; details: Homo sapiens, OCI-AML-3, OCI-AML3 cells, Blood
Procedure: as §1

[30] = system: OCI-LY19; details: Homo sapiens, OCI-LY19 cells, Blood
Procedure: as §1

[31] = system: RERF-LC-Ad2; details: RERF-LC-Ad2 cells, Lung
Procedure: as §1

[32] = system: SCLC-21H; details: Homo sapiens, SCLC-21H cells, Lung
Procedure: as §1

[33] = system: SK-MEL-3; details: Homo sapiens, SK-MEL3, SK-MEL-3 cells, Skin
Procedure: as §1

[34] = system: SK-N-MC; details: Homo sapiens, SK-N-MC cells, Brain
Procedure: as §1

[35] = system: SK-OV3; details: Homo sapiens, SK-OV-3, SK-OV3 cells, Ovary
Procedure: as §1

[36] = system: SW948; details: Homo sapiens, SW948 cells, Colon
Procedure: as §1

[37] = system: Saos-2 EC; details: Homo sapiens, Saos-2 EC cells, Bone
Procedure: as §1

[38] = system: T84; details: Homo sapiens, T84 cells, Colon
Procedure: as §1

[39] = system: T98G; details: Homo sapiens, T98G cells, Brain
Procedure: as §1

SMILES: O=C(NC1CCN(CCCCC2(C(=O)NCC(F)(F)F)c3ccccc3-c3ccccc32)CC1)c1ccccc1-c1ccc(C(F)(F)F)cc1 [lomitapide, N-(2,2,2-trifluoroethyl)-9-[4-[4-[[[4′-(trifluoromethyl)[1,1′-biphenyl]2-yl]carbonyl]amino]-1-piperidinyl]butyl]-9H-fluoren-9-carboxamide]
- IC50 [1]: 1800 nM
- IC50 [2]: 3.6 µM
- IC50 [3]: 5 µM
- IC50 [4]: 5.7 µM
- IC50 [5]: 2700 nM
- IC50 [6]: 2800 nM
- IC50 [7]: 3.6 µM
- IC50 [8]: 3.8 µM
- IC50 [9]: 4.6 µM
- IC50 [10]: 3.5 µM
- IC50 [11]: 5 µM
- IC50 [12]: 3.9 µM
- IC50 [13]: 2700 nM
- IC50 [14]: 4 µM
- IC50 [15]: 2700 nM
- IC50 [16]: 3.5 µM
- IC50 [17]: 4.2 µM
- IC50 [18]: 4.5 µM
- IC50 [19]: 2800 nM
- IC50 [20]: 3.6 µM
- IC50 [21]: 3.1 µM
- IC50 [22]: 5.3 µM
- IC50 [23]: 5.7 µM
- IC50 [24]: 4 µM
- IC50 [25]: 3.3 µM
- IC50 [26]: 3.3 µM
- IC50 [27]: 3000 nM
- IC50 [28]: 3.3 µM
- IC50 [29]: 2100 nM
- IC50 [30]: 2800 nM
- IC50 [31]: 2600 nM
- IC50 [32]: 3000 nM
- IC50 [33]: 1600 nM
- IC50 [34]: 2400 nM
- IC50 [35]: 3.3 µM
- IC50 [36]: 4.5 µM
- IC50 [37]: 3.6 µM
- IC50 [38]: 3.2 µM
- IC50 [39]: 3.8 µM
